Data set [1] addresses MAP kinase p38 (Homo sapiens) (UniProt O15264+Q15759+Q16539+P53778). The data set can be described thus: Inhibition of TNFalpha-stimulated MAPK p38 phosphorylation in HUVEC preincubated with cells followed by TNFalpha stimulation measured after 30 mins by Western blot method.
Data set [2] relates to Rattus norvegicus. The experiment in a line: Inhibition of retinal leukostasis in STZ-induced Wistar rat diabetic retinopathy model assessed as adherent leukocyte count per retina at 50 ug/eye administered intravitreally measured after 3 days by FITC-ConA staining based fluorescence microscopic method (reference value: 52 +/- 10). Type of data set: functional.
In data set [3] the test system is Rattus norvegicus. The experiment in a line: Toxicity in STZ-induced Wistar rat diabetic retinopathy model assessed as TUNEL positive cells in retinal layers at 75 ug/eye administered intravitreally measured after 3 days by fluorescence microscopic method. Conditions: in vivo, topical_or_ocular, 72 h.
For data set [4], the system named is Rattus norvegicus. The data set can be described thus: Inhibition of retinal vascular leakage in STZ-induced Wistar rat diabetic retinopathy model assessed as reduction in FITC-dextran leakage at 50 ug/eye administered intravitreally measured after 3 days by fluorescence microscopic method. The format is functional.
In data set [5] the target is Transcription factor p65 (Homo sapiens) (UniProt Q04206). The experiment in a line: Inhibition of TNFalpha-stimulated NF-kB p65 nuclear translocation in HUVEC up to 20 uM preincubated with cells followed by TNFalpha stimulation measured after 30 mins by Western blot method.
Chain of Transcription factor p65 (Homo sapiens) (Q04206 whole entry): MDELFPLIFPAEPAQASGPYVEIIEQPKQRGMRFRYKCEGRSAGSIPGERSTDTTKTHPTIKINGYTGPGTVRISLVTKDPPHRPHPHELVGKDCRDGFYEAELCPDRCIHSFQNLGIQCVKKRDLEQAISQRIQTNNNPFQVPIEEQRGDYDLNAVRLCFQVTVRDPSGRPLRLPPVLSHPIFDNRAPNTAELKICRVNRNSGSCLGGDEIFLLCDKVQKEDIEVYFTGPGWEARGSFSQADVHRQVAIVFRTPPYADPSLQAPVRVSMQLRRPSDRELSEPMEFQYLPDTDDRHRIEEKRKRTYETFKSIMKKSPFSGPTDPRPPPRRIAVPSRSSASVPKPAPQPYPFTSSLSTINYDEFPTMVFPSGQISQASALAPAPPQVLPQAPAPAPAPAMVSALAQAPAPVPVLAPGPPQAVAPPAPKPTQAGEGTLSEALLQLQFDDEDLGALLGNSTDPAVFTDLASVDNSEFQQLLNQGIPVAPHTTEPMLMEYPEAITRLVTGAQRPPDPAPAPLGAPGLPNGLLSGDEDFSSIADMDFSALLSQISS
The test system of data set [6] is Rattus norvegicus. The experiment in a line: Toxicity in STZ-induced Wistar rat diabetic retinopathy model assessed as inflammatory cells accumulation in vitreous at 75 ug/eye administered intravitreally measured after 3 days by hematoxylin and eosin staining based assay. Conditions: in vivo, topical_or_ocular, 72 h.
For data set [7], the target named is Transcription factor p65 (Homo sapiens) (UniProt Q04206). The data set can be described thus: Inhibition of TNFalpha-stimulated NF-kB p65 phosphorylation at Ser-276 residue in HUVEC up to 20 uM preincubated with cells followed by TNFalpha stimulation measured after 30 mins by Western blot method.
Data set [8] concerns Rattus norvegicus. The experiment in a line: Inhibition of retinal vascular leakage in STZ-induced Wistar rat diabetic retinopathy model assessed as Evans blue albumin level in retina at 50 ug/eye administered intravitreally measured after 3 days (reference value: 82.94 +/- 11.2 ug/g). The format is functional.
The target of data set [9] is Transcription factor p65 (Homo sapiens) (UniProt Q04206). The data set can be described thus: Inhibition of TNFalpha-stimulated NF-kB p65 phosphorylation at Ser-536 residue in HUVEC up to 20 uM preincubated with cells followed by TNFalpha stimulation measured after 30 mins by Western blot method.
Data set [10] is filed under the species Homo sapiens. The data set can be described thus: Inhibition of TNFalpha-stimulated NF-kB in HUVEC assessed as reduction in TNFalpha mRNA level up to 20 uM preincubated with cells followed by TNFalpha stimulation measured after 30 mins by RT-PCR method.
Data set [11] addresses c-Jun N-terminal kinase, JNK (Homo sapiens) (UniProt P45983+P53779+P45984). The data set can be described thus: Inhibition of TNFalpha-stimulated JNK phosphorylation in HUVEC up to 20 uM preincubated with cells followed by TNFalpha stimulation measured after 30 mins by Western blot method.
The subject of data set [12] is Rattus norvegicus. The data set can be described thus: Downregulation of ICAM-1 level in STZ-induced Wistar rat diabetic retinopathy model at 50 ug/eye administered intravitreally measured after 3 days by Western blot method. Type of data set: functional.
Data set [13] deals with Rattus norvegicus. The experiment in a line: Toxicity in STZ-induced Wistar rat diabetic retinopathy model assessed as inflammatory cells accumulation in choroid tissues at 75 ug/eye administered intravitreally measured after 3 days by hematoxylin and eosin staining based assay. The note with it: in vivo, topical_or_ocular, 72 h.
Data set [14] has as its target T1, Inhibitor of nuclear factor kappa-B kinase subunit beta (Homo sapiens) (UniProt O14920).
T1 sequence (whole entry): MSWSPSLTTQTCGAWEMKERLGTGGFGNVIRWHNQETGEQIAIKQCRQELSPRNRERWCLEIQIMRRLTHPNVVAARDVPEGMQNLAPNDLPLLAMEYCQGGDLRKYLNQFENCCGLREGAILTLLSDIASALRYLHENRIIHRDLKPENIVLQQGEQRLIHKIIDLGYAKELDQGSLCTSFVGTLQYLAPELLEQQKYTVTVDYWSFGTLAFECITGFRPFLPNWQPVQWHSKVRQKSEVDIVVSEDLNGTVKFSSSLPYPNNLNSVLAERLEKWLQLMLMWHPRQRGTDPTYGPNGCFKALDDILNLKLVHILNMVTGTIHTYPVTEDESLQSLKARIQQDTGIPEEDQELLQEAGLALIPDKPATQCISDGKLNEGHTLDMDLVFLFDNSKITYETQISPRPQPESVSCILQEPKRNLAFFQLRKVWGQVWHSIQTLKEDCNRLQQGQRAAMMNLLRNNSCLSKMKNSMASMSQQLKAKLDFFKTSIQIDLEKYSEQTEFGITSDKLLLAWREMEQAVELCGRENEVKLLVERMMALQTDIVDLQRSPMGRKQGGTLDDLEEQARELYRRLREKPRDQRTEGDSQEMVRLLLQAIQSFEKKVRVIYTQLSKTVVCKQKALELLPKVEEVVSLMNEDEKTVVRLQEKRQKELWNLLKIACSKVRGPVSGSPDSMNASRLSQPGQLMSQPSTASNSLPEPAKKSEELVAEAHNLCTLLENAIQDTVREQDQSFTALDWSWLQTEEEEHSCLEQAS
The experiment in a line: Inhibition of IKKbeta in HUVEC assessed as reduction in TNFalpha-stimulated IkBalpha phosphorylation at Ser-32 residue preincubated with cells followed by TNFalpha stimulation measured after 30 mins by Western blot method.

The test system of data set [15] is Rattus norvegicus. The data set can be described thus: Toxicity in STZ-induced Wistar rat diabetic retinopathy model assessed as inflammatory cells accumulation in retina at 75 ug/eye administered intravitreally measured after 3 days by hematoxylin and eosin staining based assay. The note with it: in vivo, topical_or_ocular, 72 h.
In data set [16] the test system is Rattus norvegicus. The experiment in a line: Toxicity in STZ-induced Wistar rat diabetic retinopathy model assessed as effect on retina thickness at 75 ug/eye administered intravitreally measured after 3 days by hematoxylin and eosin staining based assay. Conditions: in vivo, topical_or_ocular, 72 h.
The species named for data set [17] is Homo sapiens. The data set can be described thus: Inhibition of TNFalpha-stimulated NF-kB in HUVEC assessed as reduction in ICAM1 mRNA level up to 20 uM preincubated with cells followed by TNFalpha stimulation measured after 30 mins by RT-PCR method.
The test system of data set [18] is HUVEC. The data set can be described thus: Cytotoxicity against HUVEC assessed as reduction in cell viability up to 20 uM after 24 hrs by MTT assay. The format is cell-based. The note with it: human.
Data set [19] concerns Rattus norvegicus. The data set can be described thus: Downregulation of TNFalpha level in STZ-induced Wistar rat diabetic retinopathy model at 50 ug/eye administered intravitreally measured after 3 days by Western blot method. The format is functional.
Data set [20] concerns the target T1, Inhibitor of nuclear factor kappa-B kinase subunit beta (Homo sapiens). The experiment in a line: Inhibition of TNFalpha-stimulated IKKbeta phosphorylation at Ser-177 residue in HUVEC preincubated with cells followed by TNFalpha stimulation measured after 30 mins by Western blot method.

From ChEMBL document CHEMBL4007468, “Curcumolide reduces diabetic retinal vascular leukostasis and leakage partly via inhibition of the p38MAPK/NF-κ B signaling” (Bioorg Med Chem Lett, 2017) come the findings set out here.

Structures are written as SMILES. Active and inactive are the calls of the source. No cut-off for these calls is given here.

Regarding `CC1=C[C@]2(C(C)(C)O)C[C@]3(OC2=O)[C@@H](C)CC[C@@H]13`, the inhibition entry in data set [1], in data set [14] and in data set [20] was “Dose-dependent effect” throughout. Further, the Activity in data set [2] was 25; in data set [3] it was “Non-Toxic”; in [6], “Non-Toxic”; in [8] it was 43.53 µg/g; in data set [13], “Non-Toxic”; in data set [15] it was “Non-Toxic”. The Activity result in data set [16] and in data set [18] was “Non-Toxic” each time. The inhibition entry in [4], in data set [5], in [7], in [9], in data set [10] and in data set [17] was “Active” in each case. Besides, the inhibition entry in data set [11] is “inactive”. For the same compound, the outcome in data set [12] and in [19] was Active.
Turning to `CC1(C)O[C@@H]2C[C@H]3[C@@H]4CCC5=CC(=O)C=C[C@]5(C)[C@@]4(F)[C@@H](O)C[C@]3(C)[C@]2(C(=O)CO)O1` [TRIAMCINOLONE ACETONIDE], the results for the Activity in data set [2] and in data set [8] were 19 and 36.33 µg/g, respectively. Further, the inhibition result in data set [4] is “Active”. Besides, the result in [12] and in [19] was Active.
